Results taken from patent publication US11701433B2, “Complexes for delivery of antigenic peptides” (The Regents of the University of Michigan, priority 2017, dated 2023).

Key:
[1] = system: STING; assay: Immunoblot of STING protein level in SOX2-expressing cells treated with inhibitors of autophagy; assay type: cell-based; conditions: HEK-293T and UMSCC22b cells
Method: Cell culture: UMSCC22b and UMSCC47 were obtained from the U-M Head and Neck Cancer SPORE. PCI-13 was obtained from the University of Pittsburgh Head and Neck Cancer SPORE. HEK-293T was purchased from ATCC. The human HNSCC cells and HEK293T cells were maintained in complete DMEM medium. The MOC2-E6/E7 cells were obtained from Dr. David Mooney at Harvard University, the parental and derivative cell lines were cultured in 30% F12 nutrient mix (Thermo Fisher Scientific, Waltham, Mass.), 5% FBS, puromycin […], insulin (4 mg/ml), hydrocortisone (200 ug/ml), EGF (100 ug/ml) and penicillin (100 U/ml) and streptomycin […]. THP1-blue ISG cells (Cat. thp-isg, InvivoGen, San Diego, Calif.) were cultured in RPMI media supplemented with 10% FBS, 1% penicillin, streptomycin, Normocin and Zeocin. NK cells, T cells, and tumor-infiltrating lymphocytes were cultured in complete RPMI 1640 medium. Peripheral blood monocytes were separated from healthy volunteers using Ficoll-Paque gradient. Primary human NK and CD8^+ T cells were separated using a NK cell enrichment kit and a CD8^+ T cell enrichment kit, respectively (Cat. 19055 and Cat. 19053, […] Technologies Inc, Cambridge, Mass.). All cells were cultured in 37° C. incubator with 5% CO2. […] Tumors were measured every other day using a caliper, and the tumor volume was calculated as 0.52×length×width^2. […]

[2] = system: MOC2-E6/E7 tumors; assay: Real time PCR of Ifna4 and Ifnb1 in tumor homogenates; assay type: in vivo, C57BL/6 mice; conditions: R9F/Q15L study, tumors harvested 25 days post-implantation
Method: Experimental animals and treatments: Female C57BL6 mice, aged 6-8 weeks, were purchased from the Jackson Laboratory, and maintained in a pathogen-free facility at the University of Michigan. All animal work were done in accordance with and approved by the Institutional Animal Care & Use Committee (IACUC) at the University of Michigan, Ann Arbor. Syngeneic squamous cell carcinoma cells were implanted subcutaneously at the neck. Tumors were measured every other day using a caliper, and the tumor volume was calculated as 0.52×length×width^2. […] To test the efficacy of the vaccine formulations, MOC2-E6/E7 cells were implanted subcutaneously on the back of the neck on day 0. […] Anti-PD-L1 (100 μg/100 μl) (clone B7H1, BioXCell, West Lebanon, N.H.) was administered through intraperitoneal injection on day 1 and 4 after each vaccination.

CO/C1=C\C(C)=C\[C@@H](C)[C@@H](O)[C@@H](C)C/C(C)=C/C=C/[C@H](OC)[C@@H]([C@@H](C)[C@@H](O)[C@H](C)[C@@]2(O)C[C@@H](O)[C@H](C)[C@@H](C(C)C)O2)OC1=O [bafilomycin A]
SOX2-induced decrease in STING protein level [1]: partially restored

CCN(CC)CCCC(C)Nc1ccnc2cc(Cl)ccc12 (stereo not drawn) [chloroquine]
SOX2-induced decrease in STING protein level [1]: partially restored

cyclic GMP-AMP [cGAMP]
production of Ifna4 and Ifnb1 in tumors [2]: modest effect
